The nature of data set [1]: Oral glucose tolerance test (OGTT). The data set is classed as in vivo, C57BL/6J mice. As to conditions: blood glucose AUC 0-120 min, 10 nmol/kg s.c. 4 h before oral glucose 2 g/kg. The procedure: Male C57BL/6J mice were fasted for 10 h before they received an oral glucose bolus of 2 g/kg body weight. Peptides were dissolved in saline buffered with 25 mM phosphate and administered at a dose of 10 nmol/kg body weight by subcutaneous injection 4 h before the glucose bolus. Control animals received a vehicle injection only. Group size was 7 animals per group. A pre-dose and a pre-glucose (0 min) blood sample were obtained by tail bleeding and blood glucose was measured with a glucometer. Additional samples of tail blood for measuring blood glucose were obtained 15 min, 30 min, 60 min, 90 min and 120 min after the glucose challenge. […] Calculation of AUC was done by the trapezoidal rule without baseline correction. The data are presented as mean±S.E.M. Statistical comparisons were conducted by one-way ANOVA followed by Tukey's post test. Vehicle alone was used as a control.

In data set [2] the target is T1, human glucagon-like peptide 1 receptor (GLP-1R) (Homo sapiens, UniProt P43220).
T1 construct: expressed in transfected cells
As to the kind of experiment: GLP-1 receptor efficacy assay (cAMP AlphaScreen, CHO cells). The data set is classed as cell-based. Conditions: Table 1A; for pEC50: CHO cells expressing human GLP-1-R, cAMP, read-out: EC50 hGLP-1R CHO-K1; for Ratio GLP-1/Glucagon: EC50 [GLP-1R]/EC50 [Glucagon-R]. The method, boiled down:
(§1)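 Stably transfected CHO clones expressing human GLP-1R or glucagon receptor were treated with increasing peptide concentrations for 15 min at room temperature in KRBH containing 0.1 mM IBMX. After lysis, cAMP was quantified by AlphaScreen; EC50 and efficacy relative to GLP-1 or glucagon reference came from curve fitting.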

Data set [3] addresses T2, human glucagon receptor (Glucagon-R) (Homo sapiens, UniProt P47871).
T2 construct: expressed in transfected cells
The data set can be described thus: Glucagon receptor efficacy assay (cAMP AlphaScreen, CHO cells). The data set is classed as cell-based. As to conditions: Table 1A; CHO cells expressing human Glucagon-R, cAMP; read-out: EC50 hGCGR CHO-K1. The method, boiled down:
as §1
(In general: Bead proximity is the source of the signal in Alpha formats.)

A short description of data set [4]: Pharmacokinetic parameters after subcutaneous and intravenous administration to mice. The data set is classed as in vivo. As to conditions: male, mouse, plasma, 20 nmol/kg, C57Bl/6J mice; for half-life: read-out: Terminal half life (converted); for MRT: read-out: Mean Residence Time. How it is done:
Pharmacokinetic parameters of the test compounds were determined after subcutaneous and intravenous administration to C57Bl/6J mice.
8 week old male C57Bl/6J mice were obtained from Taconic (Denmark) weighing approximately 20-25 g at time of arrival at the test facility. The mice were caged in European standard cages type III with light cycle of 12-hour dark and 12-hour light (lights on 06.00). Both diet, Altromin 1324 (Altromin, Germany), and water was administered ad libitum during the whole experimental period. The 8-11 week animals were imported to the laboratory at least 7 days before the start up of the experimental procedure in order to assure proper acclimatization. After sampling the mice were euthanized by cervical dislocation.
The compounds were first dissolved in 0.096% aqueous ammonia to a nominal concentration of 2 mg/ml, and then diluted to the desired dosing strength (4 μM) in sterile PBS containing 25 mM phosphate buffer, pH 7.4. Subcutaneous and intravenous injections corresponding to 20 nmol/kg were given. The GLP-1-glucagon dual agonists were administered for subcutaneous dosing in the neck region and via a lateral tail vein for intravenous dosing.
Blood samples (250 μl) were collected from the periorbital plexus at time points 0.5, 2, 4, 6, 12, 16, 20, 24 h for subcutaneous and 10, 30 min, 3, 6, 12, 18, 24 h for intravenous administration into ice-chilled K3EDTA tubes and centrifuged for 5 minutes at 4° C. within 20 minutes of sampling. Plasma (>100 μl) was separated to ice-chilled Micronic tubes, immediately frozen, and kept at −70° C. until analysed for plasma concentration for the respective GLP-1-glucagon compound using LC-MS/MS. Individual plasma concentration-time profiles were analysed by a non-compartmental approach in WinNonLin v6.3 (Pharsight inc, Mountain View, Calif., USA), and the resulting pharmacokinetic parameters determined.

pEC50: −log10 of the molar value. Where two headings read alike, the source gives them in different places. *1 amine or outer side, *2 acyl side, *3 side chain or, on linkers, in order; H or OH if unused. Where a SMILES comes first, the peptide text is derived from it. Side-chain parts run from the residue outwards. [ ]: non-standard residue; d: D form. The star is where a group is joined. γGlu = O=C(O)[C@H](CCC(=O)[*:2])N[*:1]; Palmitoyl = CCCCCCCCCCCCCCCC(=O)*; Aib = CC(C)(N)C(=O)O

T1 sequence (P43220 24-463): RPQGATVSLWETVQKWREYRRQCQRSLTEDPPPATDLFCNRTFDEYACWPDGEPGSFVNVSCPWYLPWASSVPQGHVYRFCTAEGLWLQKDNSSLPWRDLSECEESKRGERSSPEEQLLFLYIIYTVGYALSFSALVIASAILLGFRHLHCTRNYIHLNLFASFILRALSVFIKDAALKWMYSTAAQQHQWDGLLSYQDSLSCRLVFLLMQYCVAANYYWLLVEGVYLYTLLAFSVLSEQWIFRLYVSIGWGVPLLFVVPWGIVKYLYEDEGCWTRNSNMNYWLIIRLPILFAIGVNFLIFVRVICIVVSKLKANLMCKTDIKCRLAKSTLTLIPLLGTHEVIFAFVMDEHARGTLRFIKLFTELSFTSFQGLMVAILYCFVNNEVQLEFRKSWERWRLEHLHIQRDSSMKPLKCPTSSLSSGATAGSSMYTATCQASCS
T2 sequence (P47871 26-477): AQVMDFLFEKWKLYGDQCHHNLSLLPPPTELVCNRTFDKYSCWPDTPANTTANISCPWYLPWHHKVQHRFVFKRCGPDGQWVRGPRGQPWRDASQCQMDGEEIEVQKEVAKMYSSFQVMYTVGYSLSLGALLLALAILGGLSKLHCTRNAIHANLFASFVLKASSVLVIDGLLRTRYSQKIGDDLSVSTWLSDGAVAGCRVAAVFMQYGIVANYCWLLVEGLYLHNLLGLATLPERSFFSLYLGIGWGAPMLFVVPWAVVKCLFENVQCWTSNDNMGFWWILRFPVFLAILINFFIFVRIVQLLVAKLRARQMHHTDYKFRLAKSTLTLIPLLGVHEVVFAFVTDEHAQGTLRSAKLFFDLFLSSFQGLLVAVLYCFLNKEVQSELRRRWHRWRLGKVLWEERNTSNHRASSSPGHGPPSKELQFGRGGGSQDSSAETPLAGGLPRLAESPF

As for `CCCCCCCCCCCCCCCC(=O)N[C@@H](CCC(=O)NCCCC[C@H](NC(=O)[C@H](CO)NC(=O)[C@H](CC(=O)O)NC(=O)[C@H](CC(C)C)NC(=O)[C@H](Cc1ccc(O)cc1)NC(=O)[C@H](CCCCN)NC(=O)[C@H](CO)NC(=O)[C@H](Cc1ccc(O)cc1)NC(=O)[C@H](CC(=O)O)NC(=O)[C@H](CO)NC(=O)[C@@H](NC(=O)[C@H](Cc1ccccc1)NC(=O)[C@@H](NC(=O)CNC(=O)[C@H](CCC(N)=O)NC(=O)C(C)(C)NC(=O)[C@@H](N)Cc1c[nH]cn1)[C@@H](C)O)[C@@H](C)O)C(=O)N[C@@H](C)C(=O)N[C@@H](C)C(=O)N[C@@H](Cc1c[nH]cn1)C(=O)N[C@@H](CC(=O)O)C(=O)N[C@@H](Cc1ccccc1)C(=O)N[C@H](C(=O)N[C@@H](CCC(=O)O)C(=O)N[C@@H](Cc1c[nH]c2ccccc12)C(=O)N[C@@H](CC(C)C)C(=O)N[C@@H](CC(C)C)C(=O)N[C@@H](CO)C(=O)O)C(C)C)C(=O)O` [Compound 1, H-H-Aib-QGTFTSDYSKYLDS-K(Hexadecanoyl-isoGlu)-AAHDFVEWLLS-OH] (H-H[Aib]QGTFTSDYSKYLDSK([γGlu-Palmitoyl])AAHDFVEWLLS-OH), the “AUC (% Ctrl)” value in data set [1] is 66 % Ctrl. Also, in data set [2], the pEC50 is 9.27 and the “Ratio GLP-1/Glucagon” value was 0.60. Further, the pEC50 in data set [3] is 9.05. Further, in data set [4] (IV), the clearance is 0.0102 L/h/kg and the half-life is 5.2 h. Also, in data set [4] (SC), the Tmax is 4 h, the bioavailability stood at 52%, the MRT turned out to be 12.6 h and the half-life is 6.2 h.

As to `CCCCCCCCCCCCCCCC(=O)N[C@@H](CCC(=O)NCCCC[C@H](NC(=O)[C@H](CO)NC(=O)[C@H](CC(=O)O)NC(=O)[C@H](CC(C)C)NC(=O)[C@H](Cc1ccc(O)cc1)NC(=O)[C@H](CCCCN)NC(=O)[C@H](CO)NC(=O)[C@H](Cc1ccc(O)cc1)NC(=O)[C@H](CC(=O)O)NC(=O)[C@H](CO)NC(=O)[C@@H](NC(=O)[C@H](Cc1ccccc1)NC(=O)[C@@H](NC(=O)CNC(=O)[C@H](CCC(N)=O)NC(=O)[C@H](CO)NC(=O)[C@@H](N)Cc1c[nH]cn1)[C@@H](C)O)[C@@H](C)O)C(=O)N[C@@H](C)C(=O)N[C@@H](C)C(=O)N[C@@H](Cc1c[nH]cn1)C(=O)N[C@@H](CC(=O)O)C(=O)N[C@@H](Cc1ccccc1)C(=O)N[C@H](C(=O)N[C@@H](CCC(=O)O)C(=O)N[C@@H](Cc1c[nH]c2ccccc12)C(=O)N[C@@H](CC(C)C)C(=O)N[C@@H](CC(C)C)C(=O)N[C@@H](CO)C(=O)N[C@@H](C)C(=O)O)C(C)C)C(=O)O` [Compound 2, H-HSQGTFTSDYSKYLDS-K(Hexadecanoyl-isoGlu)-AAHDFVEWLLSA-OH] (H-HSQGTFTSDYSKYLDSK([γGlu-Palmitoyl])AAHDFVEWLLSA-OH), the “AUC (% Ctrl)” value in data set [1] is 66 % Ctrl. For the same compound, in data set [2], the pEC50 was 9.11 and the “Ratio GLP-1/Glucagon” value is 2.48. Besides, the pEC50 in data set [3] is 9.51. Besides, in data set [4] (IV), the clearance is 0.0111 L/h/kg and the half-life was 5 h. Also, in data set [4] (SC), the time of peak concentration (Tmax) came out at 4 h, the bioavailability came out at 59%, the MRT came out at 11.2 h and the half-life is 5.1 h.

Regarding `CCCCCCCCCCCCCCCC(=O)N[C@@H](CCC(=O)NCCCC[C@H](NC(=O)[C@H](CO)NC(=O)[C@H](CC(=O)O)NC(=O)[C@H](CC(C)C)NC(=O)[C@H](Cc1ccc(O)cc1)NC(=O)[C@H](CCCCN)NC(=O)[C@H](CO)NC(=O)[C@H](Cc1ccc(O)cc1)NC(=O)[C@H](CC(=O)O)NC(=O)[C@H](CO)NC(=O)[C@@H](NC(=O)[C@H](Cc1ccccc1)NC(=O)[C@@H](NC(=O)CNC(=O)[C@H](CCC(N)=O)NC(=O)[C@H](CO)NC(=O)[C@@H](N)Cc1c[nH]cn1)[C@@H](C)O)[C@@H](C)O)C(=O)N[C@@H](C)C(=O)N[C@@H](C)C(=O)N[C@@H](Cc1c[nH]cn1)C(=O)N[C@@H](CC(=O)O)C(=O)N[C@@H](Cc1ccccc1)C(=O)N[C@H](C(=O)N[C@@H](CCC(=O)O)C(=O)N[C@@H](Cc1c[nH]c2ccccc12)C(=O)N[C@@H](CC(C)C)C(=O)N[C@@H](CC(C)C)C(=O)N[C@@H](CCCNC(=N)N)C(=O)N[C@@H](C)C(=O)O)C(C)C)C(=O)O` [Compound 3, H-HSQGTFTSDYSKYLDS-K(Hexadecanoyl-isoGlu)-AAHDFVEWLLRA-OH] (H-HSQGTFTSDYSKYLDSK([γGlu-Palmitoyl])AAHDFVEWLLRA-OH), the “AUC (% Ctrl)” value in data set [1] came out at 70 % Ctrl. Also, in data set [2], the negative logarithm of the EC50 (pEC50) is 9.04 and the “Ratio GLP-1/Glucagon” value stood at 2.60. Also, the pEC50 in data set [3] was 9.46. Moreover, in data set [4] (IV), the clearance is 0.0115 L/h/kg and the half-life was 4.1 h. In addition, in data set [4] (SC), the Tmax stood at 6 h, the bioavailability came out at 52%, the MRT amounted to 9.8 h and the half-life is 3.9 h.

Take `CCCCCCCCCCCCCCCC(=O)N[C@@H](CCC(=O)NCCCC[C@H](NC(=O)[C@H](CCC(=O)O)NC(=O)[C@H](CC(=O)O)NC(=O)[C@H](CC(C)C)NC(=O)[C@H](Cc1ccc(O)cc1)NC(=O)[C@H](CCCCN)NC(=O)[C@H](CO)NC(=O)[C@H](Cc1ccc(O)cc1)NC(=O)[C@H](CC(=O)O)NC(=O)[C@H](CO)NC(=O)[C@@H](NC(=O)[C@H](Cc1ccccc1)NC(=O)[C@@H](NC(=O)CNC(=O)[C@H](CCC(N)=O)NC(=O)C(C)(C)NC(=O)[C@@H](N)Cc1c[nH]cn1)[C@@H](C)O)[C@@H](C)O)C(=O)N[C@@H](C)C(=O)N[C@@H](C)C(=O)N[C@@H](CCCCN)C(=O)N[C@@H](CC(=O)O)C(=O)N[C@@H](Cc1ccccc1)C(=O)N[C@H](C(=O)N[C@@H](CCC(=O)O)C(=O)N[C@@H](Cc1c[nH]c2ccccc12)C(=O)N[C@@H](CC(C)C)C(=O)N[C@@H](CC(C)C)C(=O)N[C@@H](CO)C(=O)N[C@@H](C)C(N)=O)[C@@H](C)CC)C(=O)O` [Compound 4, H-H-Aib-QGTFTSDYSKYLDE-K(Hexadecanoyl-isoGlu)-AAKDFIEWLLSA-NH2] (H-H[Aib]QGTFTSDYSKYLDEK([γGlu-Palmitoyl])AAKDFIEWLLSA-NH2): the “AUC (% Ctrl)” value in data set [1] is 65 % Ctrl. In addition, in data set [2], the pEC50 was 9.42 and the “Ratio GLP-1/Glucagon” value was 0.24. Further, the pEC50 in data set [3] is 8.81. Moreover, in data set [4] (IV), the clearance is 0.0111 L/h/kg and the half-life was 7.4 h. Also, in data set [4] (SC), the Tmax came to 4 h, the bioavailability amounted to 53%, the MRT amounted to 12.5 h and the half-life is 6.4 h.

The pEC50 is the negative decadic logarithm of the EC50, by convention in mol/L. By half-life is commonly meant how long it takes for the measured level to halve. As usually defined, the Tmax is the time at which the peak concentration occurs. By bioavailability is commonly meant the share of a dose that reaches the circulation, judged against a reference dose that is usually intravenous. Low readings indicate poor availability, high ones good availability.

For the origin of these results see patent US10253081B2, “Glucagon analogues” (Zealand Pharma A/S, priority 2012, dated 2019).
